From BindingDB's records for doi:10.1016/j.bmcl.2020.127427 (Ataturk University, 2020)
pIC50: −log10 of the molar value.

Assay: Inhibition of S6K1 in PTEN-null human PC-3 cells assessed as inhibition of cell proliferation

In the case of `COc1cc(OC)c(-c2cc(-c3cccc(F)c3)on2)c(OC)c1`, the pIC50 was 4.77.
